Measured values: a melting point compilation (Tetko et al.)

Compound | melting point [°C]
N#Cc1c(C(F)(F)F)cc(Nc2cccc([N+](=O)[O-])c2)nc1Cl | 276 to 279
CCOC(=O)c1sc(N)nc1C | 177 to 178
CC1=C(C=NO)C(=O)C(C(C)C)C=C1 (stereo not given) | 146
CCN(CC)C(=O)COC(=O)c1ccccc1 | 72.5
N#Cc1ccc(-c2ccco2)cc1 | 66 to 67
CC(CC(C)(C)O)OC(O)C(Cl)(Cl)Cl (stereo not given) | 103
O=C(Nc1ccccc1)c1cccc2c(Br)cccc12 | 217
CCCCCC=O | -56
CN(N=O)c1ccc(N=O)cc1 | 101
CCOC(=O)c1c(C)csc1N | 81
ON=C1CCCCCCC1 | 37
Cc1nccn1-c1cccc(C(=O)O)c1 | 182 to 184
NC(=O)c1ccco1 | 141
NC[C@H]1CC[C@H](C(=O)O)CC1 | 300
Cc1cc(C(F)(F)F)n2nc(N)c(/N=N/c3cccc4ccccc34)c2n1 | 236
CC(C)(O)CCc1ccccc1O | 114 to 116
CCCC(CC(OCC)OCC)OCC (stereo not given) | -100
COc1cccc(C(=O)CBr)c1 | 62
O=C(OC(=O)c1ccncc1)c1ccncc1 | 133
C[C@H](O)c1ccccc1Br | 56 to 58
O=C(Nc1ccccc1)c1cc2ccccc2cc1O | 248
OCc1ccccc1COc1ccccc1 | 50 to 51
Cc1cc(=O)oc2cc(O)ccc12 | 194

Compound | melting point [°C]
ClC1=C(Cl)C2(Cl)C3C4OC4(Cl)C(Cl)C3C1(Cl)C2(Cl)Cl (stereo not given) | 144
CCc1cccc(CC)c1N(COC)C(=O)CCl | 41
O=C1CN=C(c2ccccc2F)c2cc(Cl)ccc2N1CC1CC1 | 118
Cc1cc(Br)ccc1N | 59.5
COP(=S)(OC)Oc1cc(Cl)c(Cl)cc1Cl | 41
COc1ccc2c3c1OC1C(=O)CCC4(O)C(C2)N(C)CCC314 (stereo not given) | 219
CNC(=O)N(C)c1nc2ccccc2s1 | 120
CC/C(=N/NC(N)=O)C1=CC2(C)CCC1C2(C)C (stereo not given) | 196 to 197
COc1ccc(O)c(F)c1F | 105
CSc1nc2cc(N=Cc3ccccc3Cl)ccc2[nH]1 | 229 to 231
CCCC(C)C1(CC)C(=O)NC(=S)NC1=O (stereo not given) | 130
C1CCC(CCCCCC2CCCCC2)CC1 | -13.6
CCOC(=O)C(=CN(O)c1ccccc1)c1ccccc1 | 75
COc1ccc(C2(C(=O)O)CCCCC2)cc1 | 172 to 177
CC(=O)c1sc2nc(-c3cccs3)cc(C(F)(F)F)c2c1N | 171 to 172
C=C(O[Si](C)(C)C)c1c(C)c(C)c(C)c(C)c1C | 41
COc1c(Br)ccc(C)c1C(=O)O | 125
O=Cc1cccc(-c2nccs2)c1 | 67 to 68
CC(C)N(C(=O)SCC(Cl)=CCl)C(C)C | 25
Nn1nnc2ccccc21 | 81 to 85
CC(C)(C)[Si](C)(C)Cl | 88
CCC(=NNc1cccc(NN=C(CC)C(=O)O)c1)C(=O)O | 190
CC(C)(C)OC(=O)N1CCCC(O)C1 (stereo not given) | 68

Compound | melting point [°C]
Cc1ncsc1C(=O)O | 254 to 255
CC(=O)CCc1ccc(CCC(C)=O)cc1 | 55 to 56
CC(=O)OC[C@H]1O[C@@H](OC(C)=O)[C@H](OC(C)=O)[C@@H]1OC(C)=O | 79 to 81
CSc1c(C#N)c(N)nc2c(/N=N/c3cccc(C(F)(F)F)c3)c(N)nn12 | 293
O=C1c2ccccc2C(=O)C1C(=O)C(c1ccccc1)c1ccccc1 | 146
CCCCCCCCCCCCCCCCCC(=O)Cl | 23
CC(C)(C)OC(=O)N1CCC(c2nc(CO)cs2)CC1 | 97 to 101
N#Cc1ccc(Cl)c(C(F)(F)F)c1 | 66
O=C(O)c1sccc1Br | 196
CC1C(NC(=O)C(=NOC(C)(C)C(=O)O)c2csc(N)n2)C(=O)N1S(=O)(=O)O (stereo not given) | 277
Cc1cc(C)c2c(c1)CC2=O | 48
COc1ccc(-c2cc(-c3ccc(OC)cc3)cc(-c3ccc(OC)cc3)c2)cc1 | 143 to 146
COC(=O)c1sc(SC)nc1N | 104
Cc1cc2ccccc2c2ccc3ccccc3c12 | 118
NC(CSc1ncccc1C(F)(F)F)=NO | 161 to 164
COC(=O)C1CC(=O)c2ccccc21 (stereo not given) | 45
CC(=O)C1CCC2(C)C(CCC3C4CCC(O)C4(C)CCC32)C1 (stereo not given) | 145
OCc1ccc(I)cc1 | 73
CCOc1nc2ccccc2c(=O)[nH]1 | 178 to 179
Nc1cnn(-c2ccccc2)c(=O)c1Cl | 206
CN(C)CCCOc1ccccc1CO | 55 to 57
Nc1cc(CCNC(=O)c2ccccc2)ccc1CCNC(=O)c1ccccc1 | 210
Cc1onc(-c2c(Cl)cccc2Cl)c1CCl | 61 to 63

Compound | melting point [°C]
Oc1ccc(Cl)cc1F | 20
O=[N+]([O-])c1ccccc1OCCBr | 40 to 44
Nc1ccc(Nc2ccccc2)c2c1C(=O)c1ccccc1C2=O | 192
Cc1cnc(C(=O)O)cn1 | 166
O=C(O)CNC(=O)OCC1c2ccccc2-c2ccccc21 | 174 to 178
O=Cc1ccc(-c2cccc(C(=O)O)c2)cc1 | 166
CC(C)C(C(=O)O)C(=O)O | 90 to 93
CC(CBr)c1ccccc1 (stereo not given) | -59.3
CC(C)(O)CC(C)(O)c1ccc(Cl)cc1 (stereo not given) | 76.5
CC(O)Cn1c(=O)c2c(ncn2C)n(C)c1=O (stereo not given) | 141
O=C(Cl)c1ccc(OC2CCOCC2)cc1 | 37.5 to 39
c1ccc2c3c(ccc2c1)-c1cccc2cccc-3c12 | 166
Nc1ncnc2c1ncn2CC(O)CO (stereo not given) | 202 to 203
CC(C)(C)OC(=O)N1CCN(c2ccc(I)cn2)CC1 | 102 to 105
CC(=O)Nc1ccc2c(c1)Cc1cc([N+](=O)[O-])ccc1-2 | 262
CN(C)C(=O)SCCCCOc1ccccc1 | 40.5
C[N+](C)(C)CC(=O)[O-] | 301
CC(=O)c1nn(-c2ccc(F)cc2)c(=N)s1 | 198
O=[N+]([O-])c1cc([N+](=O)[O-])c(C(Br)=Cc2ccccc2)cc1/C=C\c1ccccc1 | 194 to 196
CCCCCCCCCCOc1ccc(C(C)=O)cc1 | 35 to 37

Now from value to compound:

melting point [°C] | Compound
81 | Sc1ccc2ccccc2c1
52 | Oc1ccccc1Cc1ccccc1
45 | O=C(OCCO)c1ccccc1
80 to 83 | CC1(C)CC2C(C(=O)O1)C2(C)C (stereo not given)
190 | N#Cc1c(-c2ccc(Br)cc2)cc2c(C#N)c(=N)n(C(=O)c3ccccc3)n2c1N
288 | COC(=O)Nc1nc2ccc(C(=O)c3ccccc3)cc2[nH]1
76 to 78 | O=C(C=Cc1ccc(Br)o1)c1ccco1
-71.4 | CCC(=O)OCC(C)C
45.5 to 48 | CC(=O)c1csc(-c2ccc(OC(F)(F)F)cc2)n1
90 | c1ccc(N=Nc2ccc(Nc3ccccc3)cc2)cc1
23 | CCCCCCCCCCC=CCCCCCCCC(=O)O
191 to 192 | COc1ccc(C(N)=S)cc1[N+](=O)[O-]
29 | CCC(=O)CC#N
127 to 129 | CCOC(=O)NC(=S)Nc1cccc(C)n1
50 to 52 | CC(O)CC(C)O (stereo not given)
196 | CC(=O)c1ccc(OC2OC(CO)C(O)C(O)C2O)cc1 (stereo not given)
53.4 | CCCCCCCCCCCCCC(=O)OC(=O)CCCCCCCCCCCCC
129 | COC(=O)c1cc(OC)c(OC)cc1N
20.5 | CCCCCCCCCCCCCC(=O)OCc1ccccc1
196 to 201 | Cc1cc(=O)[nH]cc1Br
175 | Cc1cc(C)n(CN(Cn2nc(C)cc2C)c2ccc(N(Cn3nc(C)cc3C)Cn3nc(C)cc3C)cc2)n1

melting point [°C] | Compound
111 to 114 | O=C(Oc1c(F)c(F)c(F)c(F)c1F)c1ccc(OC2CCOCC2)cc1
54 to 56 | Nc1ccccc1-c1cnco1
< 20 | Brc1ccccc1Oc1ccccc1
268 | CC(=O)Nc1cc(CCNC(=O)c2ccccc2)cc(NC(C)=O)c1CCNC(=O)c1ccccc1
54 | c1ccc2nonc2c1
188 | O=c1[nH]ncc2ccccc12
68.5 | O=C(O)CCCCCCCCCCCCC1C=CCC1 (stereo not given)
156 | CC(=O)OCC1(C)CCCC23COC4CC5C(C)C(=O)C6(C(CC12)OC(C)(C)OC56)C43 (stereo not given)
146 to 147 | CS(=O)(=O)Nc1cccc(C=O)c1
142 | O=C(NC(CC=Cc1ccccc1)C(=O)O)OCC1c2ccccc2-c2ccccc21 (stereo not given)
212 | O=C(O)c1ccc(Br)c(F)c1
65 to 68 | CC(C)[C@H](O)C(=O)O
254 | O=C1OC(c2ccc(O)c3ccccc23)(c2ccc(O)c3ccccc23)c2ccccc21
101 to 103 | Cc1cc(C(=O)N2CCN(c3ccccc3)CC2)no1
157 | COc1ccc([N+](=O)[O-])cc1C(=O)O
80 | O=C1C(Br)C2c3ccccc3C(C1Br)C(Br)C(=O)C2Br (stereo not given)
198 | C(C=C(c1ccccc1)c1ccccc1)=C(c1ccccc1)c1ccccc1
153 to 154 | Cc1ccc(-c2cc(N)[nH]n2)cc1
161 to 163 | NC(=S)c1ccc[nH]1
124 to 126 | CCOC(=O)NC(=S)Nc1ncccc1C
